Data taken from PubChem BioAssay (NCI).
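Briefly, cells in 96-well plates were exposed to five compound concentrations for 48 h, and endpoints were estimated by linear interpolation. TGI is the concentration that stops growth completely.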

Legend:
Assay in all cases: DTP human tumour cell line panel, 48 h
[1] = test system: A498 renal
[2] = test system: BT-549 breast
[3] = test system: COLO 205 colon
[4] = test system: HCT-15 colon
[5] = test system: HT29 colon
[6] = test system: MDA-MB-435
[7] = test system: MOLT-4 leukemia
[8] = test system: RPMI-8226 leukemia
[9] = test system: SK-MEL-2 melanoma
[10] = test system: UACC-62 melanoma

SMILES	TGI [1]	TGI [2]	TGI [3]	TGI [4]	TGI [5]	TGI [6]	TGI [7]	TGI [8]	TGI [9]	TGI [10]
Cn1c(=O)c2c(nc3n(CC(O)CCl)c(=O)ccn23)n(C)c1=O (stereo not drawn)	> 100 µM	> 100 µM	> 100 µM	> 100 µM	> 100 µM	> 100 µM	92.1 µM	> 100 µM	> 100 µM	> 100 µM
N#CCCN(CCC#N)c1ccc(/C=C2\N=C(c3ccccc3)N(c3ccc(F)cc3)C2=O)cc1	> 100 µM	> 100 µM	> 100 µM	> 100 µM	> 100 µM	> 100 µM	> 100 µM	> 100 µM	> 100 µM	> 100 µM
COc1cc2c(c3c1c(=O)c1ccccc1n3C)C=CC1(CCCC1)O2	31.9 µM	25.5 µM	27.6 µM	35.5 µM	19.7 µM	35 µM	> 100 µM	5.48 µM	33.6 µM	29.1 µM
C1=C(c2ccccc2)SC(N2CCCCC2)S1 (stereo not drawn)	> 100 µM	–	> 100 µM	> 100 µM	> 100 µM	–	> 100 µM	> 100 µM	> 100 µM	> 100 µM
C=CCSC1=N/C(=C\c2ccc(Cl)cc2)C(=O)N1CC=C	52.4 µM	76.2 µM	> 100 µM	> 100 µM	> 100 µM	> 100 µM	–	52.9 µM	76 µM	> 100 µM
COc1ccc(N2C(=O)C3c4[nH]c5ccc(OCc6ccccc6)cc5c4C4CCC(c5ccccc5)CC4C3C2=O)cc1 (stereo not drawn)	50.4 µM	17 µM	> 100 µM	> 84 µM	> 100 µM	12.1 µM	> 36.8 µM	–	68 µM	29 µM
COc1cc(/C=C2\C(=O)N(c3cccc([N+](=O)[O-])c3)C(c3ccccc3)S2(=O)=O)cc(OC)c1OC (stereo not drawn)	> 100 µM	> 100 µM	> 100 µM	> 100 µM	> 100 µM	> 100 µM	> 100 µM	> 100 µM	> 100 µM	> 100 µM
Cn1nc2ccc([N+](=O)[O-])c(Cn3nnc4ccccc43)c2n1	> 100 µM	> 100 µM	> 100 µM	> 100 µM	> 100 µM	> 100 µM	> 100 µM	> 100 µM	> 100 µM	> 100 µM
O=C(O)CCc1nc2c(n1-c1ccccc1)C(=O)c1ccccc1C2=O	> 100 µM	> 100 µM	> 100 µM	> 100 µM	> 100 µM	> 100 µM	> 100 µM	> 100 µM	> 100 µM	> 100 µM
COC(=O)Cc1cc(O)c2c(c1O)C(=O)c1ccccc1C2=O	> 87.1 µM	> 100 µM	> 100 µM	> 100 µM	> 46.4 µM	> 100 µM	> 100 µM	> 100 µM	> 100 µM	> 100 µM
COc1cccc(N2C(=O)CSC2c2cccc(Oc3ccccc3)c2)c1 (stereo not drawn)	9.33 µM	45.6 µM	10.2 µM	76.9 µM	37.5 µM	> 100 µM	28.4 µM	–	16.3 µM	11.7 µM
O=C1[C@H](O)[C@@H]2C(O)O[C@H]3[C@@H]2N1C[C@H]3[Si](c1ccccc1)(c1ccccc1)c1ccccc1 (stereo partly drawn)	> 100 µM	> 100 µM	> 100 µM	> 100 µM	> 100 µM	> 100 µM	> 100 µM	> 100 µM	> 100 µM	> 100 µM
CCOC(=O)C(C#N)(Cc1c[nH]c2ccccc12)NC(C)=O (stereo not drawn)	–	–	> 100 µM	> 100 µM	> 100 µM	–	> 100 µM	> 100 µM	> 100 µM	> 100 µM
COC(=O)[C@H]1C=NN[C@@H]1C(=O)N1[C@H]2CC3CC[C@@]2(CS1(=O)=O)C3(C)C	> 100 µM	> 100 µM	> 100 µM	> 100 µM	–	> 100 µM	> 100 µM	> 100 µM	> 100 µM	–
O=c1[nH]c2nc3ccccc3c(=O)n2/c1=C/c1ccc(Cl)cc1	–	46.2 µM	> 100 µM	> 100 µM	–	58.5 µM	> 100 µM	> 100 µM	> 100 µM	> 100 µM
CCN(CCCOc1ccccc1)CCN(CC)CCCOc1ccccc1	–	29.1 µM	24.5 µM	30 µM	27.4 µM	34.2 µM	16.8 µM	10.4 µM	32.3 µM	36.7 µM
CCOC(=O)c1ccc(-n2[nH]nc(C(N)=O)c2=O)cc1	–	> 100 µM	> 100 µM	> 100 µM	> 100 µM	> 100 µM	> 100 µM	> 100 µM	> 100 µM	> 100 µM
N=C1C(=N)c2ccccc2-c2ccccc21.[Cl-].[Ru+2].c1ccc(-c2ccccn2)nc1.c1ccc(-c2ccccn2)nc1	–	–	–	> 100 µM	> 100 µM	–	> 100 µM	–	> 100 µM	> 100 µM
O=C(Nc1ccc(N2C(=O)CSC2c2ccccc2O)cc1)c1ccc(N2C(=O)CSC2c2ccccc2O)cc1 (stereo not drawn)	–	> 100 µM	> 100 µM	> 100 µM	> 100 µM	> 100 µM	> 100 µM	> 100 µM	> 100 µM	98.1 µM
CC(=O)NC1C(OCc2ccccc2)OC(CO)C(O)C1OCC(=O)N1CCCC1C(=O)N[C@@H](CCC(=O)NCCCCNc1c2ccccc2nc2cccc([N+](=O)[O-])c12)C(N)=O (stereo partly drawn)	> 100 µM	43.7 µM	46.4 µM	> 100 µM	50.2 µM	54.5 µM	> 100 µM	> 100 µM	32.7 µM	–
CCNCCNC(=O)c1ccc(I)cc1	> 100 µM	> 100 µM	–	> 100 µM	> 100 µM	–	> 100 µM	> 100 µM	–	> 100 µM
Cc1ccc2c(c1)-c1nc(N)c(C#N)c(-c3ccc(Cl)cc3)c1CCS2(=O)=O	92.1 µM	> 100 µM	65.6 µM	> 100 µM	63.2 µM	> 100 µM	–	–	> 100 µM	> 100 µM
Cc1ccc(C(=N)c2ccccc2Cc2cccc3ccccc23)c2ccccc12	> 100 µM	> 100 µM	> 100 µM	> 100 µM	> 100 µM	> 100 µM	> 100 µM	–	> 100 µM	> 100 µM
